According to patent US20250129021A1, “SMALL MOLECULE PROTEIN SYNTHESIS MODULATORS” (Interdict Bio, Inc., priority 2023, published 2025):

What was measured:
Type in all cases: biochemical
CCNE1 = experiment: In vitro transcription-translation (IVTT) assay, CCNE1 reporter; conditions: HeLa S3 lysate, 2 hrs at 30° C.
Procedure: Each preparation takes 8 cell pellets (4 ml packed volume each, approximately 1.0×10^9 cells per pellet). Thaw cell pellets from −80° C. on ice for 90 mins. Lay pellets horizontally on top of the ice and rotate every 30 mins to ensure even thawing. Once thawed, add 4 mL of cold lysis buffer to each pellet, and using a serological pipet, gently pipet up and down to break up clumps. Incubate resuspended cells in ice for an additional 30 mins (plunged into ice). During 30 min incubation, rinse and RNase-zap (Ambion) glass dounces (use loose pestle “A”), gently dry and place on ice until needed. Prepare RNase-free Eppendorf tubes for spinning and for batch storage. Add batch labels to 1.5-1.7 mL RNase-free microcentrifuge tubes (labeling scheme below). Each batch will have an extra 1.5-1.7 mL RNase-free microcentrifuge tube for 40 μL of lysate, label the top of this tube (labeling scheme below). After 30 min incubation, transfer all 8 mL of cell pellet to dounce. Cell lysis is complete after douncing 100 times. Aliquot cell lysis into 1.5-1.7 mL temporary-microcentrifuge tubes. Place tubes in centrifuge with “fins” out, and spin at 1,200×g for 5 mins. After the first spin use a 1 mL pipet to resuspend each tube and repeat spin. This acts as an additional lysis step, is more vigorous and increases lysate yield. During second spin get liquid N2 and a fresh conical tube on ice. After spin is complete, transfer supernatant (lysate) from microcentrifuge tubes into the 50 mL conical tube and keep on ice. Repeat steps 10-14 for all other cell pellets until completed. Once all cell lysate has been transferred to the 50 mL conical tube pipet to mix so the solution is homogenous. Transfer 1 mL of lysate into batch-labeled microcentrifuge tubes and flash freeze in liquid nitrogen. Be sure to pipet up and down to mix throughout transfer step. Place all tubes in the […] for long-term storage.
In vitro transcription-translation assay setup: Each assay includes a master mix containing lysate and shared components, a 96-well plate containing compound titrations for testing, a 96-well DNA plate with reporter constructs to be tested, 96-well skirted PCR plates, and 96-well flat-bottom, black, fluorescent assay plates. Reaction materials setup: (A) Master mix—15 mL conical tube (3 mL of HeLa S3 Lysate described above; 0.6 mL of ThermoFisher Accessory Proteins (#88882); 1.2 ml of ThermoFisher Reaction Mix (#88882); 0.54 mL of nuclease-free Water); (B) 96-Well Master Mix+Compound Plate (Half-log dilutions (30 μM−0.1 μM) of 4 compounds of interest are prepared in 100% DMSO); 96-Well DNA Plate (Five DNA constructs are plated into single columns within the plate. Row 1 of the column contains nuclease free H2O, all other wells contain 110 ng/μL plasmid DNA). Reactions are started by mixing 155 μL of master mix and 3.5 μL of compound serial dilutions, then 9.1 μL of master mix+compound mixture is aliquoted across 5 96-well plates. Reactions begin with final addition of 2 μL of DNA for a 11.1 μL reaction volume in each well. The entire plate is sealed, and incubated for 2 hrs at 30° C. After 2 hrs, quench the assay using 45 μL of PBS, and transfer 50 μL to a flat-bottom black microplate Quantify the sfGFP and mCherry signals from each well on each plate, taking 3 reads of each plate, and perform data analysis below.
In vitro transcription-translation assay data analysis: Each plate is read three times in channels for both sfGFP and mCherry signals. The average signal across these 3 reads is then calculated for further analysis. Control wells containing no DNA reporter are subtracted from reporter wells in the same column to remove auto-fluorescence of the lysate. Then, the ratio of sfGFP/mCherry is calculated per well, and these ratios are averaged across the triplicate experiments on the same plate. Finally, the ratio of each titration concentration is normalized to the no drug control to create the normalized stalling metric. […]

CCNTB1 = experiment: In vitro transcription-translation (IVTT) assay, CCNTB1 reporter; conditions: HeLa S3 lysate, 2 hrs at 30° C.
Procedure, shortened: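 IC50 fitted from the sfGFP/mCherry fluorescence ratio, normalized to no-drug control after no-DNA background subtraction. Reactions ran 2 h at 30° C in HeLa S3 cell lysate with reporter plasmid DNA and half-log compound titrations (30 μM−0.1 μM, in DMSO).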

MYC = experiment: In vitro transcription-translation (IVTT) assay, MYC reporter; conditions: IVTT assay, HeLa S3 lysate, MYC reporter, normalized sfGFP/mCherry ratio; half-log dilutions 30 μM-0.1 μM, 2 hrs at 30° C.
Procedure, shortened: (§1)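 Reporter: mCherry, P2A, then 3×FLAG-target peptide-sfGFP fusion, IRES-initiated; HeLa S3 lysate IVTT; cpd dilutions 30 μM−0.1 μM half-log in 100% DMSO (dilution-plate conc); DNA added last; 2 h, 30° C; PBS quench.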

CCND1 = experiment: In vitro transcription-translation (IVTT) assay, CCND1 reporter; conditions: IVTT, HeLa S3 lysate, 2 hrs at 30° C.
Procedure, shortened: as §1

SMILES | IC50 (CCNE1) | IC50 (CCNTB1) | IC50 (CCND1) | IC50 (MYC)
COc1ccc(C[C@H]2NC[C@H](O)[C@H]2OC(=O)NCc2cc(N3CCCC3)nc(N3CCCC3)c2)cc1 [V188228, (2R,3S,4S)-4-hydroxy-2-[(4-methoxyphenyl)methyl]pyrrolidin-3-yl N-{[2,6-bis(pyrrolidin-1-yl)pyridin-4-yl]methyl}carbamate] | > 30 µM | > 30 µM | > 30 µM | > 30 µM
O=C(NCC1(F)CC1)O[C@@H]1[C@@H](O)CN[C@@H]1Cc1ccc(Cl)cc1 [V188269, (2R,3S,4S)-2-[(4-chlorophenyl)methyl]-4-hydroxypyrrolidin-3-yl N-[(1-fluorocyclopropyl)methyl]carbamate] | 10 to 20 µM | < 10 µM | > 30 µM | > 30 µM
O=C(NCc1cccc(F)c1)O[C@@H]1[C@@H](O)CN[C@@H]1Cc1ccc(Cl)cc1 [V188270, (2R,3S,4S)-2-[(4-chlorophenyl)methyl]-4-hydroxypyrrolidin-3-yl N-[(3-fluorophenyl)methyl]carbamate] | < 10 µM | < 10 µM | 10 to 20 µM | < 10 µM
O=C(NCc1ccc(F)cc1)O[C@@H]1[C@@H](O)CN[C@@H]1Cc1ccc(Cl)cc1 [V188271, (2R,3S,4S)-2-[(4-chlorophenyl)methyl]-4-hydroxypyrrolidin-3-yl N-[(4-fluorophenyl)methyl]carbamate] | < 10 µM | < 10 µM | 10 to 20 µM | 10 to 20 µM
O=C(NCc1cc(F)cc(F)c1)O[C@@H]1[C@@H](O)CN[C@@H]1Cc1ccc(Cl)cc1 [V188272, (2R,3S,4S)-2-[(4-chlorophenyl)methyl]-4-hydroxypyrrolidin-3-yl N-[(3,5-difluorophenyl)methyl]carbamate] | < 10 µM | < 10 µM | 20 to 30 µM | 10 to 20 µM
O=C(NCc1ccc(Cl)cc1)O[C@@H]1[C@@H](O)CN[C@@H]1Cc1ccc(Cl)cc1 [V188273, (2R,3S,4S)-2-[(4-chlorophenyl)methyl]-4-hydroxypyrrolidin-3-yl N-[(4-chlorophenyl)methyl]carbamate] | 20 to 30 µM | 10 to 20 µM | > 30 µM | > 30 µM

Now from value to compound, other results behind:

IC50 (CCNE1) | IC50 (CCNTB1) | IC50 (CCND1) | SMILES | IC50 (MYC)
< 10 µM | < 10 µM | 10 to 20 µM | O=C(NCC1CC1)O[C@@H]1[C@@H](O)CN[C@@H]1Cc1ccc(Cl)cc1 [V188275, (2R,3S,4S)-2-[(4-chlorophenyl)methyl]-4-hydroxypyrrolidin-3-yl N-(cyclopropylmethyl)carbamate] | < 10 µM
> 30 µM | > 30 µM | > 30 µM | O=C(NCc1ccc(OC(F)(F)F)cc1)O[C@@H]1[C@@H](O)CN[C@@H]1Cc1ccc(Cl)cc1 [V188286, (2R,3S,4S)-2-[(4-chlorophenyl)methyl]-4-hydroxypyrrolidin-3-yl N-{[4-(trifluoromethoxy)phenyl]methyl}carbamate] | > 30 µM
< 10 µM | < 10 µM | 20 to 30 µM | O=C(NC[C@@H]1CCOC1)O[C@@H]1[C@@H](O)CN[C@@H]1Cc1ccc(Cl)cc1 [V188288, (2R,3S,4S)-2-[(4-chlorophenyl)methyl]-4-hydroxypyrrolidin-3-yl N-[(3S)-oxolan-3-ylmethyl]carbamate] | 10 to 20 µM
< 10 µM | < 10 µM | < 10 µM | NS(=O)(=O)c1ccc(CNC(=O)O[C@@H]2[C@@H](O)CN[C@@H]2Cc2ccc(Cl)cc2)cc1 [V188291, (2R,3S,4S)-2-[(4-chlorophenyl)methyl]-4-hydroxypyrrolidin-3-yl N-[(4-sulfamoylphenyl)methyl]carbamate] | 10 to 20 µM
< 10 µM | < 10 µM | < 10 µM | COc1ccc(C[C@H]2NC[C@H](O)[C@H]2OC(=O)NCc2ccc(S(N)(=O)=O)cc2)cc1 [V188304, (2R,3S,4S)-4-hydroxy-2-[(4-methoxyphenyl)methyl]pyrrolidin-3-yl N-[(4-sulfamoylphenyl)methyl]carbamate] | < 10 µM
